Patent US9365528B2 (Southern Research Institute, priority 2011, dated 2016)
pIC50: −log10 of the molar value. Like-named read-outs stand apart in the source and are kept apart here.

Assays:
Colo741 = experiment: Tumor cell growth inhibition, cell viability assay (Cell Titer Glo), 72 h; type: cell-based; settings: Homo sapiens, COLO-741; Table 3; colon adenocarcinoma; 72 hours of treatment
Method: (§1) The potency to inhibit tumor cell growth was determined by calculating IC50 values using a standard cell viability assay (Cell Titer Glo, Promega Corp,) following 72 hours of treatment. The human colon tumor cell lines, HT-29, SW480, HCT116, and Colo 741 were derived from colon adenocarcinomas, while LT97 is derived from an adenoma. Fetal human colonocytes (FHC) are representative of normal colonocytes. The lack of effect inhibiting cyclooxygenases 1 and 2 (COX-1 and -2) is also shown.

HCT116 = experiment: as above; type: cell-based; settings: Homo sapiens, HCT-116; for IC50: Table 1, colon, read-out: Colon tumor cell growth inhibitory activity (IC50, μM) HCT116; for pIC50: Table 3, colon adenocarcinoma, 72 hours of treatment, read-out: HCT116 (IC50)
Method: as §1

HT29 = experiment: as above; type: cell-based; settings: Homo sapiens, HT-29; for pIC50: Table 3, colon adenocarcinoma, 72 hours of treatment, read-out: HT29 (IC50)
Method: as §1

LT97 = experiment: as above; type: cell-based; settings: Homo sapiens; Table 3; adenoma; 72 hours of treatment
Method: as §1

SW480 = experiment: as above; type: cell-based; settings: Homo sapiens; for IC50: Table 1, colon, read-out: Colon tumor cell growth inhibitory activity (IC50, μM) SW480; for pIC50: Table 3, colon adenocarcinoma, 72 hours of treatment, read-out: SW480 (IC50)
Method: as §1

MCF-7 = experiment: Breast tumor cell growth inhibitory activity; type: cell-based; settings: Homo sapiens, MCF7; Table 1, breast
SKBR3 = experiment: Breast tumor cell growth inhibitory activity; type: cell-based; settings: Homo sapiens, SK-BR-3; Table 1, breast
[1] = tested on: Fetal human colonocytes (FHC); experiment: Cell growth inhibition, cell viability assay (Cell Titer Glo), 72 h; type: cell-based; settings: Table 3, normal colonocytes, 72 hours of treatment
Method: as §1

COX-1 = COX-1 (Homo sapiens, UniProt P23219); experiment: COX inhibition, colorimetric assay with recombinant COX enzymes
Chain of COX-1 (P23219 24-599): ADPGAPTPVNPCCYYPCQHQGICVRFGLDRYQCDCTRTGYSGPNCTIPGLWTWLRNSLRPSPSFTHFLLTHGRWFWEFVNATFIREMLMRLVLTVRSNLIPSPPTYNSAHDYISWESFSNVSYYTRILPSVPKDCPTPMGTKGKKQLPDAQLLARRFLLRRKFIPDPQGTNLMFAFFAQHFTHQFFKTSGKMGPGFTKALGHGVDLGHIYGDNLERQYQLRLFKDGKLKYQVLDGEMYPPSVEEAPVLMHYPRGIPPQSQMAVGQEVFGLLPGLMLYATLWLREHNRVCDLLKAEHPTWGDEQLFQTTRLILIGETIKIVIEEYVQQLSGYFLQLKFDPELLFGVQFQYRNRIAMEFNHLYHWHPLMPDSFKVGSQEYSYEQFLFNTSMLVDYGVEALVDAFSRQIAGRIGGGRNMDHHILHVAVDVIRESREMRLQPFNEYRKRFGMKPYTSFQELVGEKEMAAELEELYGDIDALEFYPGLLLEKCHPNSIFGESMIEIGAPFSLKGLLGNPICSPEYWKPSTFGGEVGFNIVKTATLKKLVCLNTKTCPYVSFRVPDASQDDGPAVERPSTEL
Method: (§2) The enzyme activity was measured using a colorimetric assay using recombinant COX enzymes. […] The growth inhibitory activity was determined following 72 hours of treatment using a standard cell viability assay (Cell Titer Glo, Promega Corp).

COX-2 = target: T1, COX-2 (Homo sapiens, UniProt P35354); experiment: as above
T1 sequence (P35354 18-604): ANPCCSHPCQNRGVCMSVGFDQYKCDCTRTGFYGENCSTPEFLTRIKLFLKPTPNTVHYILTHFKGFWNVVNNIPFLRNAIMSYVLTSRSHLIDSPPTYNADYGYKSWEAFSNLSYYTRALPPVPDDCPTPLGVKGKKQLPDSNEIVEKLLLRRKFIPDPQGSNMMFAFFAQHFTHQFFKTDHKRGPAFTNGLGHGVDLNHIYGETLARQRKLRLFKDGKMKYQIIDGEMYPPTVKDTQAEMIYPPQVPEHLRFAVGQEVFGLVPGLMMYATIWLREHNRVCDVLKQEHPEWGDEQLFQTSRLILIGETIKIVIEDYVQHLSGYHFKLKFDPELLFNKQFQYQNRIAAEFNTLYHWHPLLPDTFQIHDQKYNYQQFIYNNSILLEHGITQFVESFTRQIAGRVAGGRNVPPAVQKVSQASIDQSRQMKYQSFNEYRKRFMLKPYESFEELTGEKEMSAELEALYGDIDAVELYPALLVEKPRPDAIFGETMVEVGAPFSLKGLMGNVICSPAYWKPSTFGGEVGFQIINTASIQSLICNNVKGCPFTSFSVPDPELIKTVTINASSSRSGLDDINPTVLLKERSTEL
Method: as §2

MDA-MB-231 = experiment: Tumor cell growth inhibition, cell viability assay (Cell Titer Glo), 72 h; settings: Homo sapiens
Method: as §2

PC3 = experiment: Tumor cell growth inhibitory activity; type: cell-based; settings: Homo sapiens, PC-3
[2] = Table 1, colon, read-out: Colon tumor cell growth inhibitory activity (IC50, μM) HT29
[3] = MDA-MB-231, read-out: Breast tumor cell growth inhibitory activity (IC50, μM) MDA-MB-231
[4] = Table 1, compounds 10-13, read-out: Tumor cell growth inhibitory activity (IC50, μM) HT29
[5] = scheme table, read-out: IC50 (μM) HT29
[6] = Table 1, compounds 10-13, read-out: Tumor cell growth inhibitory activity (IC50, μM) PC3
[7] = scheme table, read-out: IC50 (μM) PC3
[8] = MDA-MB-231, read-out: IC50 (μM) MDA-MB-231
[9] = MDA-MB-231, read-out: Tumor cell growth inhibitory activity (IC50, μM) MDA-MB-231 (breast)

Row | Structure (SMILES) | pIC50 (Colo741) | IC50 (HCT116) | pIC50 (HCT116) | IC50 (HT29; [2]) | pIC50 (HT29) | pIC50 (LT97) | IC50 (SW480) | pIC50 (SW480) | IC50 (MCF-7) | IC50 (SKBR3) | pIC50 [1] | IC50 (MDA-MB-231; [3]) | IC50 (HT29; [4]) | IC50 (HT29; [5]) | IC50 (PC3; [6]) | IC50 (PC3; [7]) | IC50 (MDA-MB-231; [8]) | IC50 (MDA-MB-231; [9]) | other results
1 | CSc1ccc(/C=C2/C(C)=C(CCNCc3ccccc3)c3cc(F)ccc32)cc1 [Compound 1] | 5.05 | 4.9 µM | 5.31 | 2.7 µM | 5.57 | 5.17 | 3.3 µM | 5.48 | 6.8 µM | 3.4 µM | 5.11 | 5.8 µM | – | – | – | – | – | – | pIC50 (COX-1): < 3.70; pIC50 (COX-2): < 3.70
2 | CSc1ccc(/C=C2/C(C)=C(CCNCCN3CCCCC3)c3cc(F)ccc32)cc1 [Compound 3] | – | 3.8 µM | – | 3 µM | – | – | 5.4 µM | – | 6.4 µM | 4.8 µM | – | 5.3 µM | – | – | – | – | – | – | –
3 | CSc1ccc(/C=C2/C(C)=C(CCN)c3cc(F)ccc32)cc1 [Compound 4] | – | 4.9 µM | – | 4.1 µM | – | – | 4.1 µM | – | 5.9 µM | 3.9 µM | – | 5.5 µM | – | – | – | – | – | – | –
4 | CC1=C(CCNCc2ccco2)c2cc(F)ccc2/C1=C\c1ccc([S+](C)[O-])cc1 (centres unmarked) [Compound 7] | – | – | – | 2.3 µM | – | – | – | – | – | – | – | 3.7 µM | – | – | – | – | – | – | –
5 | CC1=C(CCNCc2ccccc2)c2cc(F)ccc2/C1=C\c1ccc(S(C)(=O)=O)cc1 [Compound 9] | 5.23 | – | 5.19 | 1.8 µM | 5.69 | 5.05 | – | 5.27 | – | – | 4.95 | – | – | – | – | – | – | – | pIC50 (COX-1): < 4.00; pIC50 (COX-2): < 4.00
6 | CSc1ccc(/C=C2/C(C)=C(CN)c3cc(F)ccc32)cc1 [Compound 10, (Z)-(5-Fluoro-2-methyl-1-(4-(methylthio)benzylidene)-1H-inden-3-yl)methanamine] | – | – | – | – | – | – | – | – | – | – | – | – | 16 µM | 16 µM | 33.6 µM | 33.6 µM | 19.3 µM | 19.3 µM | –
7 | COc1cc(/C=C2/C(C)=C(CN)c3cc(F)ccc32)cc(OC)c1OC [Compound 11, (Z)-(5-Fluoro-2-methyl-1-(3,4,5-trimethoxybenzylidene)-1H-inden-3-yl)methanamine] | – | – | – | – | – | – | – | – | – | – | – | – | 14.6 µM | 14.6 µM | 29.7 µM | 29.7 µM | 15.3 µM | 15.3 µM | –
8 | CSc1ccc(/C=C2/C(C)=C(CN(Cc3ccncc3)Cc3ccncc3)c3cc(F)ccc32)cc1 [Compound 12, (Z)-1-(5-Fluoro-2-methyl-1-(4-(methylthio)benzylidene)-1H-inden-3-yl)-N,N-bis(pyridin-4-ylmethyl)methanamine] | – | – | – | – | – | – | – | – | – | – | – | – | 10.8 µM | 10.8 µM | 12.7 µM | 12.7 µM | 9.5 µM | 9.5 µM | –
9 | COc1cc(/C=C2/C(C)=C(CN(Cc3ccncc3)Cc3ccncc3)c3cc(F)ccc32)cc(OC)c1OC [Compound 13, (Z)-1-(5-Fluoro-2-methyl-1-(3,4,5-trimethoxybenzylidene)-1H-inden-3-yl)-N,N-bis(pyridin-4-ylmethyl)methanamine] | – | – | – | – | – | – | – | – | – | – | – | – | 9.83 µM | 9.83 µM | 9.09 µM | 9.09 µM | 8.21 µM | 8.21 µM | melting point: 66.4 °C
10 | CSc1ccc(/C=C2/C(C)=C(CC(=O)O)c3cc(F)ccc32)cc1 [Sulindac sulfide, reference compound] | 3.82 | – | 4.13 | – | 4.13 | 4.42 | – | 4.07 | – | – | < 3.70 | – | – | – | – | – | – | – | –
